The source of these data is publication PMC9312114, “Synthesis and Evaluation of Novel DNA Minor Groove Binders as Antiamoebic Agents” (Antibiotics, 2022).

The subject of series [1] is Acanthamoeba castellanii cysts. Nature of the series: Excystation assay. Type of series: cell-based. The conditions noted are these: cysts in PYG, negative control 100%, read-out: viable trophozoites (re-emergence of cysts to trophozoites). Here is the method:
Amoeba culture was suspended in 3 mL phosphate-buffered saline (PBS) and placed on non-nutrient bacteriological agar plates to allow for the growing of Acanthamoeba castellanii cysts. After two weeks, PBS was applied to plates containing amoeba cysts, which were then scraped off. The amoebae were centrifuged at 3000× g for 10 min, and the resulting pellet was resuspended in RPMI. The 5 × 10^5 cysts were then incubated in PYG, along with 50 µM of the compounds. To ensure accuracy, amoeba cysts in PYG alone were considered as the negative control, whereas amoeba cysts in RPMI alone were taken as the positive control, as the cysts would not be able to revert back to trophozoites. The amoeba trophozoites were then numbered by using a haemocytometer.

The next series concerns DNA. Briefly: Biophysical analysis of binding with DNA. The note with it: in words.
For a further series, the system named is HeLa cells. Nature of the series: Cytotoxicity assay (LDH release). Format: cell-based, human. The conditions noted are these: 50 µM, 24 h, LDH release, Triton X-100 = 100%. The protocol:
HeLa cells were acquired from American Type Culture Collection (ATCC) of identification ATCC CCL-2, Singapore. The cells are utilized to conduct cytotoxicity and cytopathogenicity assays. Through their cultivation in complete media, the cells were grown, and then they were placed in a 95% humidifying incubator at 37 °C and 5% CO2. Complete medium comprises Roswell Park Memorial Media (RPMI), 1% penicillin–streptomycin, 1% minimum essential medium amino acids, 1% L-glutamine, and 10% fetal bovine serum (FBS). To determine the toxicity of the compounds against human HeLa cells, cytotoxicity assays were conducted. In short, HeLa cells were cultured in 96-well plates and treated with the compounds. The plate was then placed in a humidifying incubator with 95% humidity and 5% CO2, at 37 °C, for 24 h. After 24 h, the supernatant was collected, and the cytotoxicity of the compounds was determined through a cytotoxicity detection kit that measured the quantity of lactate dehydrogenase (LDH) release. Accurate results were ensured through the addition of positive and negative controls. Untreated HeLa cells served as the negative control, whereas HeLa cells treated with 1% Triton X-100 served as the positive control. Finally, the cytotoxic properties were numerically determined by following the necessary calculations: (absorbance of media from cells treated with the drugs—absorbance of media from cells of negative control)/(absorbance of media from cells of positive control—absorbance of media from cells of negative control) × 100 [19].

In series [2] the test system is Acanthamoeba castellanii on HeLa cell monolayers. Briefly: Cytopathogenicity assay (amoeba-mediated host-cell death). The conditions noted are these: amoebae pretreated with 50 µM for 2 h, then 24 h on HeLa cells, negative control 100%. Type of series: cell-based. The protocol: Amoeba-mediated host-cell death was determined by treating 5 × 10^5 amoebae with 50 µM of compounds. The amoeba-containing plate was then placed in the incubator for 2 h at 30 °C. Following the 2 h incubation period, the treated amoebae were put on confluent HeLa cell monolayers. The plate containing the treated amoebae and HeLa cells was incubated for 24 h. Progressing the incubation period, the supernatant was collected, and the cytotoxicity was determined. Accurate results were ensured through the addition of negative and positive controls. The untreated amoebae, alone, on the cells served as the negative control, while the cells treated with Triton X-100 served as the positive control.
(Damage to the host cells serves as the signal in cytopathic effect assays.)

The subject of series [3] is Acanthamoeba castellanii. Nature of the series: Encystation assay. The note with it: 16% glucose, 48 h, negative control 100% cysts. Format: cell-based. The protocol:
The effects of the compounds on amoeba encystation were determined through the conduction of encystation assays. Briefly, 1 × 10^6 trophozoites were incubated with the compounds in a final concentration of 16% filter-sterilized glucose. Following a 48 h incubation period, 0.1% SDS was added per well for 20 min. The cysts were then counted by using a haemocytometer. To ensure accuracy, Acanthamoeba castellanii was cultured in 16% glucose, serving as the negative control.

The test system of series [4] is Acanthamoeba castellanii. Briefly: Amoebicidal assay. Format: cell-based, Acanthamoeba castellanii genotype T4 (ATCC 50492). The protocol:
Acanthamoeba castellanii genotype T4 (ATCC 50492) was cultivated in 10 mL growth medium of peptone yeast glucose (PYG) in tissue flasks (Baig, et al., 2021; Anwar, et al., 2019). The growth medium, PYG, consists of 0.75% proteose peptone, 0.75% yeast extract, and 1.5% glucose. Next, the amoebae were kept in tissue flasks and incubated at 30 °C.
To determine the compounds’ antiamoebic effects, amoebicidal assays were conducted. The 5 × 10^5 amoebae were placed in a 24-well plate and brought to a final volume of 500 µL. […] The 24-well plate was then placed in a 30 °C incubator for 24 h. Positive and negative controls were added to the assay in order to ensure reliable results. Serving as the negative control was the amoebae alone, with RPMI [4]. Meanwhile, amoebae, along with 0.25% sodium dodecyl sulphate (SDS), were used as the positive control. Through the addition of 0.1% methylene blue, live and dead amoebae were distinguished. Additionally, significant compounds were identified by conducting a Student’s t-test with a two-tailed distribution. Furthermore, the MIC50 values of three compounds were determined by using concentrations of […], 75, and 100 µM.

Details of series [5]: method as in PMID 35600289. The note with it: pH of 7; cited from earlier work.
Details of series [6]: method as in PMID 35600289. The note with it: cited from earlier work.

The structures appear in SMILES notation.

As to `CN(C)CCCNC(=O)c1cc(NC(=O)c2cc(NC(=O)c3cc(NC(=O)c4nccn4C)cn3C)cn2C)cn1C` [MGB5, N-(5-((5-((5-((3-(dimethylamino)propyl)carbamoyl)-1-methyl-1H-pyrrol-3-yl)carbamoyl)-1-methyl-1H-pyrrol-3-yl)carbamoyl)-1-methyl-1H-pyrrol-3-yl)-1-methyl-1H-imidazole-2-carboxamide], the viability at 50 µM in series [1] was found to be 80.8%; in the series with Acanthamoeba castellanii [4] (Acanthamoeba castellanii, 50 µM, 24 h, negative control 100%, read-out: amoeba viability) it was 98.4%. For the same molecule, the “ability to bind with DNA” value in the series on DNA is “bind with DNA”. Further, the “cytotoxicity against human HeLa cells” value in the series on HeLa cells was 10.9%. Besides, the “amoeba-mediated host-cell death (cytotoxic activity due to amoeba)” value in series [2] is reported as 57.8%. For the same molecule, the cysts present in the series on Acanthamoeba castellanii [3] was 48.3%. In the series with Acanthamoeba castellanii [4] (in words), the “activity against Acanthamoeba castellanii” value is on record as “no activity”.

For `Cn1cc(NC(=O)c2cc(NC(=O)c3ccc(/C=C/c4cnc5ccccc5c4)cc3)cn2C)cc1C(=O)NCCN1CCOCC1` [MGB-BP-3], the solubility in water result in series [5] was “insoluble in water”. In series [6], the pKa is recorded as 5.26.

As usually defined, the pKa is the pH at which an ionisable group is half protonated.
